# Assay results as given in ChEMBL document CHEMBL3045522, “Responses of dry beans (Phaseolus vulgaris L.) to sulfentrazone” (Crop Prot, 2007).
# Experiments:
# Type in all cases: organism-based
# Phaseolus vulgaris [1] = experiment: Phytotoxicity against Phaseolus vulgaris (Kidney dry bean) assessed as visual crop injury applied […] relative to control; conditions: in vivo
# Phaseolus vulgaris [2] = experiment: Phytotoxicity against Phaseolus vulgaris (Pink dry bean) assessed as visual crop injury applied post-emergence relative to control; conditions: in vivo
# Phaseolus vulgaris [3] = experiment: Phytotoxicity against Phaseolus vulgaris (Black dry bean) assessed as reduction in shoot dry weight applied pre-emergence relative to control; set-up: scale not given: the % may be the effect or the level left; conditions: in vivo
# Phaseolus vulgaris [4] = experiment: Phytotoxicity against Phaseolus vulgaris (Otebo dry bean) assessed as reduction in shoot dry weight applied pre-emergence relative to control; set-up: scale not given: the % may be the effect or the level left; conditions: in vivo
# Phaseolus vulgaris [5] = experiment: Phytotoxicity against Phaseolus vulgaris (Yellow eye dry bean) assessed as reduction in shoot dry weight applied pre-emergence relative to control; set-up: scale not given: the % may be the effect or the level left; conditions: in vivo
# Phaseolus vulgaris [6] = experiment: Phytotoxicity against Phaseolus vulgaris (White dry bean) assessed as reduction in shoot dry weight applied pre-emergence relative to control; set-up: scale not given: the % may be the effect or the level left; conditions: in vivo
# Phaseolus vulgaris [7] = experiment: Phytotoxicity against Phaseolus vulgaris (White dry bean) assessed as reduction in plant height applied pre-emergence relative to control; set-up: scale not given: the % may be the effect or the level left; conditions: in vivo
# Phaseolus vulgaris [8] = experiment: Phytotoxicity against Phaseolus vulgaris (Cranberry dry bean) assessed as visual crop injury applied pre-emergence relative to control; conditions: in vivo
# Phaseolus vulgaris [9] = experiment: Phytotoxicity against Phaseolus vulgaris (Yellow eye dry bean) assessed as reduction in plant height applied pre-emergence relative to control; set-up: scale not given: the % may be the effect or the level left; conditions: in vivo
# Phaseolus vulgaris [10] = experiment: Phytotoxicity against Phaseolus vulgaris (Pinto dry bean) assessed as reduction in plant height applied pre-emergence relative to control; set-up: scale not given: the % may be the effect or the level left; conditions: in vivo
# Phaseolus vulgaris [11] = experiment: Phytotoxicity against Phaseolus vulgaris (Black dry bean) assessed as reduction in plant height applied pre-emergence relative to control; set-up: scale not given: the % may be the effect or the level left; conditions: in vivo
# Phaseolus vulgaris [12] = experiment: Phytotoxicity against Phaseolus vulgaris (Pinto dry bean) assessed as reduction in shoot dry weight applied pre-emergence relative to control; set-up: scale not given: the % may be the effect or the level left; conditions: in vivo
# Phaseolus vulgaris [13] = experiment: Phytotoxicity against Phaseolus vulgaris (White dry bean) assessed as visual crop injury applied pre-emergence relative to control; conditions: in vivo
# Phaseolus vulgaris [14] = experiment: Phytotoxicity against Phaseolus vulgaris (Otebo dry bean) assessed as reduction in plant height applied pre-emergence relative to control; set-up: scale not given: the % may be the effect or the level left; conditions: in vivo
# Phaseolus vulgaris [15] = experiment: Phytotoxicity against Phaseolus vulgaris (White dry bean) assessed as visual crop injury applied post-emergence relative to control; conditions: in vivo, other
# Phaseolus vulgaris [16] = experiment: Phytotoxicity against Phaseolus vulgaris (White dry bean) assessed as visual crop injury relative to control; conditions: in vivo
# Phaseolus vulgaris [17] = experiment: Phytotoxicity against Phaseolus vulgaris (Kidney) dry bean assessed as visual crop injury relative to control; conditions: in vivo
SMILES,Activity (Phaseolus vulgaris [1]) [%],Activity (Phaseolus vulgaris [3]) [%],Activity (Phaseolus vulgaris [7]) [%],Activity (Phaseolus vulgaris [8]) [%],Activity (Phaseolus vulgaris [11]) [%],Activity (Phaseolus vulgaris [13]) [%],also measured
CS(=O)(=O)NC(=O)c1cc(Oc2ccc(C(F)(F)F)cc2Cl)ccc1[N+](=O)[O-] [FOMESAFEN],1.4,–,–,–,–,–,Activity (Phaseolus vulgaris [2]): 5%
CCc1cccc(C)c1N(C(=O)CCl)[C@@H](C)COC [S-METOLACHLOR],–,16,–,–,–,–,–
CON(C)C(=O)Nc1ccc(Cl)c(Cl)c1 [LINURON],–,26,24,4,24,49,Activity (Phaseolus vulgaris [4]): 26%; Activity (Phaseolus vulgaris [5]): 26%; Activity (Phaseolus vulgaris [6]): 26%; Activity (Phaseolus vulgaris [9]): 24%; Activity (Phaseolus vulgaris [10]): 24%; Activity (Phaseolus vulgaris [12]): 26%; Activity (Phaseolus vulgaris [14]): 24%
CCc1cnc(C2=NC(C)(C(C)C)C(=O)N2)c(C(=O)O)c1 (stereo not given) [IMAZETHAPYR],1.8,–,40,–,40,–,Activity (Phaseolus vulgaris [15]): 11%
CCc1cccc(CC)c1N(COC)C(=O)CCl [ALACHLOR],–,–,–,–,–,–,Activity (Phaseolus vulgaris [16]): 5.6%; Activity (Phaseolus vulgaris [17]): 0.5%
C#CCN1C(=O)COc2cc(F)c(N3C(=O)C4=C(CCCC4)C3=O)cc21 [FLUMIOXAZIN],–,–,28,4,23,17,–
